Assay results as given in patent US9255090B2, “Heterocyclyl derivatives and their use as prostaglandin D2 receptor modulators” (Actelion Pharmaceuticals Ltd., priority 2012, dated 2016).

Tests used:
eosinophils = test: Eosinophil shape change assay with human plasma; format: cell-based; conditions: human plasma (50%), PGD2 100 nM activation, antagonistic activity
Excerpt: Eosinophil Shape Change Assay with Human Plasma
After obtaining informed consent, blood samples were drawn by venipuncture according to the protocol approved by the ethics committee of Basel, Switzerland. Polymorphonuclear leukocytes (containing eosinophils, basophils and neutrophils) were isolated using the Polymorphprep™ method (Axis-Shield). […] The polymorphonuclear cell fraction was harvested and depleted for erythrocytes by hypotonic saline lysis.
The polymorphonuclear cells were resuspended in assay buffer (1×PBS with Ca^2+/Mg^2+ supplemented with 0.1% BSA, 10 mM HEPES, and 10 mM Glucose, pH 7.4) at 5×10^6 cells/ml and stained with anti-CD49d-APC ((APC=Allophycocyanin) for 1 hour at RT. Test compounds, at various concentrations, were preincubated 10 min in human plasma (anticoagulated with a thrombin inhibitor). Then, human plasma was added to the polymorphonuclear cells to 50% of final assay volume with polymorphonuclear cells at 4×10^6 cells/ml. After incubation for 10 minutes at 37° C., the polymorphonuclear cells were activated for 5 min at 37° C. by addition of PGD2 at 100 nM final concentration. Activation was stopped by addition of 0.5 ml paraformaldehyde (1%).
Immediately after fixation with paraformaldehyde, the samples were analyzed by FACSCanto flow cytometer (BD Biosciences) and target cells were identified by their forward-scatter (FSC) and side-scatter (SSC) characteristics. Eosinophils were identified by the anti-CD49d-APC signal and their characteristic side-scatter (SSC) profile. Shape change responses, indicative of eosinophil activation, were quantified as the percent of cells with an increased forward-scatter.

hCRTH2 receptor = hCRTH2 receptor (Homo sapiens (Human), UniProt Q9Y5Y4); test: hCRTH2 receptor membranes radioligand (3H-PGD2) displacement assay; format: binding; conditions: 3H-PGD2 radioligand displacement, HEK293-hCRTH2 membranes
Summary of the method: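 Compound was first mixed with buffer, then 3H-PGD2 was added at 2.5 nM, and the reaction was started with hCRTH2 membranes from HEK293 cells at 20 μg/well. After 90 min at room temperature, mixtures were filtered and washed with ice-cold buffer, and retained radioactivity was counted.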

Sequence of hCRTH2 receptor (Q9Y5Y4 whole entry): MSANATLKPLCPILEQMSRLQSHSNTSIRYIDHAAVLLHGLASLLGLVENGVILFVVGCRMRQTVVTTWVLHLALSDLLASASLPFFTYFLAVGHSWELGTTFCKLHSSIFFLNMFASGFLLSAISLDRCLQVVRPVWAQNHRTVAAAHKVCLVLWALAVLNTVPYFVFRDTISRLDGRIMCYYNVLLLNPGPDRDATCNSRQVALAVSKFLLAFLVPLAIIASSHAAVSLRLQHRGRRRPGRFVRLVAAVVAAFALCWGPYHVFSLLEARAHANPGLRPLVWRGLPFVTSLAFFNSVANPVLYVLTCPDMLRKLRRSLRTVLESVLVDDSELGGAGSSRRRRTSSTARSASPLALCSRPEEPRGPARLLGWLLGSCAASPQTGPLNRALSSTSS

| IC50 (eosinophils) [nM] | IC50 (hCRTH2 receptor) [nM] | IC50 (eosinophils; Homo sapiens, Eosinophil) [nM] | Compound |
| --- | --- | --- | --- |
| 12 | 2.9 |  | CCOc1ccc(CC(=O)O)cc1-c1ccc(F)c2c1CN(C(=O)CC(C)c1ccccn1)CC2 (stereo not shown) [Example 203, {4-Ethoxy-3-[5-fluoro-2-(3-pyridin-2-yl-butyryl)-1,2,3,4-tetrahydro-isoquinolin-8-yl]-phenyl}-acetic acid] |
|  | 2.1 | 9 | CCOc1cc(CC(=O)O)ccc1-c1ccc(F)c2c1CN(C(=O)OCc1cc(F)ccc1F)CC2 [Example 407, 8-(4-Carboxymethyl-2-ethoxy-phenyl)-5-fluoro-3,4-dihydro-1H-isoquinoline-2-carboxylic acid 2,5-difluoro-benzyl ester] |
|  | 5.5 | 149 | CCOc1ccc(CC(=O)O)cc1-c1ccc(F)c2c1CN(C(=O)OCC1CC1)CC2 [Example 372, 8-(5-Carboxymethyl-2-ethoxy-phenyl)-5-fluoro-3,4-dihydro-1H-isoquinoline-2-carboxylic acid cyclopropylmethyl ester] |
|  | 12.8 | 21 | CCOc1ccc(CC(=O)O)cc1-c1ccc(F)c2c1CN(C(=O)OCc1ccccc1F)CC2 [Example 400, 8-(5-Carboxymethyl-2-ethoxy-phenyl)-5-fluoro-3,4-dihydro-1H-isoquinoline-2-carboxylic acid 2-fluoro-benzyl ester] |
|  | 1.7 | 7 | CCOc1ccc(CC(=O)O)cc1-c1ccc(F)c2c1CN(C(=O)CCc1ccc(F)cc1)CC2 [Example 310, (4-Ethoxy-3-{5-fluoro-2-[3-(4-fluoro-phenyl)-propionyl]-1,2,3,4-tetrahydro-isoquinolin-8-yl}-phenyl)-acetic acid] |
|  | 22.3 | 91 | COc1ccc(CC(=O)O)cc1-c1ccc(F)c2c1CN(C(=O)CC1COCc3ccccc31)CC2 (racemic) [Example 271] |
|  | 2.51 | 622 | COc1ccc(CC(=O)O)cc1-c1ccc(F)c2c1CN(C(=O)OCc1cccc(F)c1F)CC2 [Example 147, 8-(5-Carboxymethyl-2-methoxy-phenyl)-5-fluoro-3,4-dihydro-1H-isoquinoline-2-carboxylic acid 2,3-difluoro-benzyl ester] |
| 31 |  |  | COc1cc(CC(=O)O)ccc1-c1ccc(F)c2c1CN(C(=O)CC1CCOc3ccccc31)CC2 (stereo not shown) [Example 201, {4-[2-(2-Chroman-4-yl-acetyl)-5-fluoro-1,2,3,4-tetrahydro-isoquinolin-8-yl]-3-methoxy-phenyl}-acetic acid] |
|  | 10.6 | 399 | COc1ccc(CC(=O)O)cc1-c1ccc(F)c2c1CN(C(=O)CN(C)C(c1ccccc1)c1ccc(Cl)cc1)CC2 (racemic) [Example 253] |
|  | 1.06 | 21 | CCOc1ccc(CC(=O)O)cc1-c1ccc(F)c2c1CN(C(=O)OCc1ccccc1)CC2 [Example 195, 8-(5-Carboxymethyl-2-ethoxy-phenyl)-5-fluoro-3,4-dihydro-1H-isoquinoline-2-carboxylic acid benzyl ester] |
|  | 2.6 | 18 | CCOc1ccc(CC(=O)O)cc1-c1ccc(F)c2c1CN(C(=O)OCC1CCCCC1)CC2 [Example 396, 8-(5-Carboxymethyl-2-ethoxy-phenyl)-5-fluoro-3,4-dihydro-1H-isoquinoline-2-carboxylic acid cyclohexylmethyl ester] |
|  | 15.1 | > 1000 | COc1ccc(CC(=O)O)cc1-c1ccc(F)c2c1CN(C(=O)NCc1ccc(F)cc1)CC2 [Example 132, {3-[5-Fluoro-2-(4-fluoro-benzylcarbamoyl)-1,2,3,4-tetrahydro-isoquinolin-8-yl]-4-methoxy-phenyl}-acetic acid] |
|  | 1.2 | 34 | CCOc1ccc(CC(=O)O)cc1-c1ccc(F)c2c1CN(C(=O)C[C@@H](C)c1ccccc1)CC2 [Example 221, {4-Ethoxy-3-[5-fluoro-2-((R)-3-phenyl-butyryl)-1,2,3,4-tetrahydro-isoquinolin-8-yl]-phenyl}-acetic acid] |
|  | 2.3 | 10 | CCOc1cc(CC(=O)O)ccc1-c1ccc(F)c2c1CN(C(=O)OCc1ccc(F)cc1)CC2 [Example 404, 8-(4-Carboxymethyl-2-ethoxy-phenyl)-5-fluoro-3,4-dihydro-1H-isoquinoline-2-carboxylic acid 4-fluoro-benzyl ester] |
|  | 3.4 | 13 | CCOc1ccc(CC(=O)O)cc1-c1ccc(F)c2c1CN(C(=O)OCc1ccc(F)cc1)CC2 [Example 398, 8-(5-Carboxymethyl-2-ethoxy-phenyl)-5-fluoro-3,4-dihydro-1H-isoquinoline-2-carboxylic acid 4-fluoro-benzyl ester] |
|  | 4.2 | 65 | CCOc1ccc(CC(=O)O)cc1-c1ccc(F)c2c1CN(C(=O)OCc1ncc(C)cc1F)CC2 [Example 366, 8-(5-Carboxymethyl-2-ethoxy-phenyl)-5-fluoro-3,4-dihydro-1H-isoquinoline-2-carboxylic acid 3-fluoro-5-methyl-pyridin-2-ylmethyl ester] |

| IC50 (eosinophils) [nM] | IC50 (hCRTH2 receptor) [nM] | IC50 (eosinophils; Homo sapiens, Eosinophil) [nM] | Compound |
| --- | --- | --- | --- |
|  |  | 31 | COc1ccc(CC(=O)O)cc1-c1ccc(F)c2c1CN(C(=O)CC1CC(C)(C)Oc3ccccc31)CC2 (racemic) [Example 240] |
|  |  | 13 | CCOc1ccc(CC(=O)O)cc1-c1ccc(F)c2c1CN(C(=O)CC1COCc3ccccc31)CC2 (stereo not shown) [Example 209, {4-Ethoxy-3-[5-fluoro-2-(2-isochroman-4-yl-acetyl)-1,2,3,4-tetrahydro-isoquinolin-8-yl]-phenyl}-acetic acid] |
|  |  | 50 | COc1cc(CC(=O)O)ccc1-c1ccc(F)c2c1CN(C(=O)CC1CCOc3ccccc31)CC2 (stereo not shown) [Example 200, {4-[2-(2-Chroman-4-yl-acetyl)-5-fluoro-1,2,3,4-tetrahydro-isoquinolin-8-yl]-3-methoxy-phenyl}-acetic acid] |
| 42 |  |  | CCOc1ccc(CC(=O)O)cc1-c1ccc(F)c2c1CN(C(=O)CC1COc3ccccc31)CC2 (stereo not shown) [Example 208, {3-[2-(2-2,3-Dihydro-benzofuran-3-yl-acetyl)-5-fluoro-1,2,3,4-tetrahydro-isoquinolin-8-yl]-4-ethoxy-phenyl}-acetic acid] |
|  |  | 42 | COc1ccc(CC(=O)O)cc1-c1ccc(F)c2c1CN(C(=O)[C@@H]1C[C@H]1c1cccc(F)c1)CC2 (racemic) [Example 48, (±)-(3-{5-Fluoro-2-[trans-2-(3-fluoro-phenyl)-cyclopropanecarbonyl]-1,2,3,4-tetrahydro-isoquinolin-8-yl}-4-methoxy-phenyl)-acetic acid] |
|  |  | 38 | CCOc1ccc(CC(=O)O)cc1-c1ccc(F)c2c1CN(C(=O)CC1COc3ccccc31)CC2 (racemic) [Example 227] |
|  |  | 28 | COc1cc(CC(=O)O)ccc1-c1ccc(F)c2c1CN(C(=O)CC1CCOc3ccccc31)CC2 (racemic) [Example 359] |
| 11 |  |  | CCOc1ccc(CC(=O)O)cc1-c1ccc(F)c2c1CN(C(=O)CC1COCc3ccccc31)CC2 (stereo not shown) [Example 210, {4-Ethoxy-3-[5-fluoro-2-(2-isochroman-4-yl-acetyl)-1,2,3,4-tetrahydro-isoquinolin-8-yl]-phenyl}-acetic acid] |
| 15 |  |  | CCOc1ccc(CC(=O)O)cc1-c1ccc(F)c2c1CN(C(=O)CC1COc3ccccc31)CC2 (stereo not shown) [Example 207, {3-[2-(2-2,3-Dihydro-benzofuran-3-yl-acetyl)-5-fluoro-1,2,3,4-tetrahydro-isoquinolin-8-yl]-4-ethoxy-phenyl}-acetic acid] |
|  |  | 10 | COc1ccc(CC(=O)O)cc1-c1ccc(F)c2c1CN(C(=O)[C@@H]1C[C@H]1c1cccc(F)c1)CC2 [Example 65, (3-{5-Fluoro-2-[(1R,2R)-2-(3-fluoro-phenyl)-cyclopropanecarbonyl]-1,2,3,4-tetrahydro-isoquinolin-8-yl}-4-methoxy-phenyl)-acetic acid] |
|  |  | 289 | COc1ccc(CC(=O)O)cc1-c1ccc(F)c2c1CN(C(=O)[C@@H]1C[C@H]1c1ccccc1)C2 (racemic) [Example 37, (±)-{3-[7-Fluoro-2-(trans-2-phenyl-cyclopropanecarbonyl)-2,3-dihydro-1H-isoindol-4-yl]-4-methoxy-phenyl}-acetic acid] |
|  |  | 8 | CCOc1ccc(CC(=O)O)cc1-c1ccc(F)c2c1CN(C(=O)CC1COCc3ccccc31)CC2 (racemic) [Example 228] |
|  | 2.1 |  | CCOc1cc(CC(=O)O)ccc1-c1ccc(F)c2c1CN(C(=O)CCc1cccc(F)c1)CC2 [Example 316, (3-Ethoxy-4-{5-fluoro-2-[3-(3-fluoro-phenyl)-propionyl]-1,2,3,4-tetrahydro-isoquinolin-8-yl}-phenyl)-acetic acid] |
|  | 57.2 |  | COc1ccc(CC(=O)O)cc1-c1ccc(F)c2c1CN(C(=O)/C=C/c1cccnc1)CC2 [Example 89, {3-[5-Fluoro-2-((E)-3-pyridin-3-yl-acryloyl)-1,2,3,4-tetrahydro-isoquinolin-8-yl]-4-methoxy-phenyl}-acetic acid] |
|  | 291 |  | COc1ccc(CC(=O)O)cc1-c1ccc(F)c2c1CN(C(=O)C(C)Cc1cccnc1)CC2 (racemic) [Example 343] |
